Read-outs that look alike come from different tables or passages of the source.
What was measured:
Format in all cases: cell-based
[1] = system: HCC panel comprising 39 cell lines; test: HCC panel in-vitro drug sensitivity test (Sulfo Rhodamine B), anticancer effect on cultured human cancer cell lines; details: for Delta / Range: HCC panel log GI50; for Delta: criterion ≧ 0.5; for Range: criterion ≧ 1.0; for evaluation as anticancer agent (criteria A-D: novelty, MG-MID, Delta/Range, COMPARE): HCC panel mean graph evaluation; for GI50: Homo sapiens
Procedure: The anticancer effect of each compound was determined by using the obtained concentration.
(§1) For the assay of anticancer effect, used was an HCC panel comprising 39 cell lines in total: 7 cell lines of lung cancer (Lu), 6 cell lines of stomach cancer (St), 5 cell lines of colon cancer (Co), 5 cell lines of ovarian cancer (Ov), 6 cell lines of brain tumor (CNS), 5 cell lines of breast cancer (Br), 2 cell lines of renal cancer (Re), 2 cell lines of prostate cancer (xPg) and 1 cell line of melanoma (Me). These were used as one panel, and an in-vitro drug sensitivity test was performed by using the above three compounds to obtain sensitivity patterns against each compound (mean graphs mentioned below). Further, the mean graphs obtained as the results of the above sensitivity test were compared with data in a database.
(§2) Specifically, the drug sensitivity test was performed according to the following procedures. The above 39 cancer cell lines were seeded to a 96-well plate and incubated overnight. On the following day, sample solutions each containing each of the above three compounds (5 doses, usually from 10^-4 M to 10^-8 M with 1 log intervals, the highest concentration is referred to as “High Conc”) were added to the above 96-well plate and cultured for further 2 days. Subsequently, the cell proliferation was calorimetrically determined in the obtained plate by using Sulfo Rhodamine B.
The obtained data of the measurement results are shown as mean graphs. Mean graphs (also referred to as fingerprints) visually expresses effective concentration deviations of a sample substance against individual cancer cell lines so that the sensitivity of each cancer cell line against the sample can be recognized at a glance. The mean graph is also referred to as fingerprint because it represents a pattern unique to each drug.
(§3) In the data analysis, GI50 (concentration at which cell proliferation is inhibited to 50% of a control) is obtained as a parameter for data analysis using the cell number immediately before exposure of cells to the test compound (Time Zero) as a standard. Specifically, the obtained data is used for the following calculation:
(§4) 1) If a mean optical density value at each concentration (OD test) is larger than the OD value at Time Zero (Tz), i.e., OD test >Tz, then percent growth (PG %)=((OD test−Tz)/(OD control−Tz))×100, wherein 1 OD control is the OD value of control. On the contrary, if OD test <Tz, then PG %=((OD test−Tz)/Tz)×100. In this case, PG % is a negative value.
(§5) 2) The above PG % values obtained for each cell line are plotted against concentrations (logarithm) according to the organ cancer type. The concentration at the point where each curve intersects with a horizontal line, provided at PG 50%, corresponds to log GI50.
3) Then, “mean graphs” are created. Mean log GI50 values are obtained for all of the assayed cell lines and referred to as mean graph midpoints (MG-MID). A difference between each of the mean values and the log GI50 value for each cell line is obtained (that is, GI50 for each cell line is represented as a logarithmic value of a multiple or an aliquot of the mean value). The resulting differences are depicted as bar charts extending a left or right side from the center line of mean log GI50 (scale 0) to obtain a mean graph. The higher differential sensitivity a cell line has, the longer the bar extends to the right. One scale corresponds to 1 log. The value of “Delta” provided at the bottom of the mean graph represents the difference between the value for the most sensitive cell line and the mean value. The value of “Range” provided below “Delta” represents the difference between the log GI50 values of the most sensitive cell line and the least sensitive one. […]

[2] = system: lung cancer (Lu) cell lines; test: HCC panel drug sensitivity test, lung cancer lines; details: Homo sapiens
Procedure: as §1, §2, §3, §4, §5

[3] = system: stomach cancer (St) cell lines; test: HCC panel drug sensitivity test, stomach cancer lines; details: Homo sapiens
Procedure: as §1, §2, §3, §4, §5

[4] = system: colon cancer (Co) cell lines; test: HCC panel drug sensitivity test, colon cancer lines; details: Homo sapiens
Procedure: as §1, §2, §3, §4, §5

[5] = system: ovarian cancer (Ov) cell lines; test: HCC panel drug sensitivity test, ovarian cancer lines; details: Homo sapiens
Procedure: as §1, §2, §3, §4, §5

[6] = system: brain tumor (CNS) cell lines; test: HCC panel drug sensitivity test, brain tumor lines; details: Homo sapiens
Procedure: as §1, §2, §3, §4, §5

[7] = system: breast cancer (Br) cell lines; test: HCC panel drug sensitivity test, breast cancer lines; details: Homo sapiens
Procedure: as §1, §2, §3, §4, §5

melanoma (Me) cell line = test: HCC panel drug sensitivity test, melanoma line; details: Homo sapiens; LOX-IMVI (Me)
Procedure: as §1
(§6) Specifically, the drug sensitivity test was performed according to the following procedures. The above 39 cancer cell lines were seeded to a 96-well plate and incubated overnight. On the following day, sample solutions each containing each of the above three compounds (5 doses, usually from 10^-4 M to 10^-8 M with 1 log intervals, the highest concentration is referred to as “High Conc”) were added to the above 96-well plate and cultured for further 2 days. Subsequently, the cell proliferation was calorimetrically determined in the obtained plate by using Sulfo Rhodamine B. […]

[8] = system: prostate cancer (xPg) cell lines; test: HCC panel drug sensitivity test, prostate cancer lines; details: Homo sapiens; DU-145 (xPg)
Procedure: as §1, §6

[9] = 48 h, logarithmic values of molar concentration, for many cancer cell lines of the HCC panel, cultured 2 days, Sulfo Rhodamine B, read-out: log GI50 (concentration at which cell proliferation is inhibited to 50% of the control) (converted)
[10] = mean over HCC panel, criterion <−5, read-out: MG-MID (log GI50) (converted)
[11] = DMS-114, DMS114 (Lu), read-out: log GI50 (converted)
[12] = DMS-273, DMS273 (Lu), read-out: log GI50 (converted)
[13] = A549 (Lu), read-out: log GI50 (converted)
[14] = NCI-H23 (Lu), read-out: log GI50 (converted)
[15] = NCI-H226 (Lu), read-out: log GI50 (converted)
[16] = NCI-H460 (Lu), read-out: log GI50 (converted)
[17] = NCI-H522 (Lu), read-out: log GI50 (converted)
[18] = OVCAR-3 (Ov), read-out: log GI50 (converted)
[19] = OVCAR-4 (Ov), read-out: log GI50 (converted)
[20] = OVCAR-5 (Ov), read-out: log GI50 (converted)
[21] = OVCAR-8 (Ov), read-out: log GI50 (converted)
[22] = SF-268 (CNS), read-out: log GI50 (converted)
[23] = SF-539 (CNS), read-out: log GI50 (converted)
[24] = SNB-75 (CNS), read-out: log GI50 (converted)

Row | SMILES | Delta [1] | Range [1] | evaluation as anticancer agent (criteria A-D: novelty, MG-MID, Delta/Range, COMPARE) [1] | GI50 [1, 9] [µM] | GI50 [1, 10] [µM] | GI50 [2, 11] [µM] | GI50 [2, 12] [µM] | GI50 [2, 13] [µM] | GI50 [2, 14] [µM] | GI50 [2, 15] [µM] | GI50 [2, 16] [µM] | GI50 [2, 17] [µM] | GI50 ([3]; MKN-1, MKN1 (St)) [µM] | GI50 ([3]; MKN-7, MKN7 (St)) [µM] | GI50 ([3]; MKN-28, MKN28 (St)) [µM] | GI50 ([3]; MKN-45, MKN45 (St)) [µM] | GI50 ([3]; St-4 (St)) [µM] | GI50 ([4]; HCC 2998, HCC2998 (Co)) [µM] | GI50 ([4]; HCT-116 (Co)) [µM] | GI50 ([4]; HT-29 (Co)) [µM] | further results
1 | C(CCCNCCCCNCC1CC1)CCNCCCCNCC1CC1 [BCPM464, 1,16-bis(cyclopropylmethylamino)-5,12-diazahexadecane] | 1.19 | 2.05 | the most interesting | < 100 | 13.8 | 4.37 | 4.37 | 2.82 | 3.55 | 7.24 | 9.77 | 1.82 | 7.24 | 4.17 | 4.68 | 6.46 | 6.46 | 63.1 | 6.76 | 23.4 | GI50 [5, 18]: 3.02 µM; GI50 [5, 19]: 2.88 µM; GI50 [5, 20]: 4.37 µM; GI50 [5, 21]: 5.75 µM; GI50 [6, 22]: 87.1 µM; GI50 [6, 23]: 3.16 µM; GI50 [6, 24]: 3.31 µM; GI50 ([6]; U251 (CNS), read-out: log GI50 (converted)): 60.3 µM; GI50 ([7]; HBC4, HBC-4 (Br)): 6.92 µM; GI50 ([7]; HBC5, HBC-5 (Br)): 0.891 µM; GI50 ([7]; MCF7, MCF-7 (Br)): 13.8 µM; GI50 ([7]; BSY-1 (Br)): 3.55 µM; GI50 (melanoma (Me) cell line): 6.31 µM
2 | C(CCCNCCCCNCC1CC1)CCCNCCCCNCC1CC1 [BCPM474] | 0.84 | 1.76 | the most interesting | < 100 | 11.5 | 3.8 | 4.17 | 2.82 | 4.37 | 9.12 | 16.6 | 3.24 | 12 | 4.37 | 5.25 | 12 | 6.92 | 10.2 | 6.92 | 8.71 | GI50 ([3]; MKN-74, MKN74 (St)): 47.9 µM; GI50 ([4]; KM12, KM-12 (Co)): 28.2 µM; GI50 ([4]; HCT-15 (Co)): 37.2 µM; GI50 [5, 18]: 1.66 µM; GI50 [5, 19]: 4.17 µM; GI50 [5, 20]: 5.37 µM; GI50 [5, 21]: 2.75 µM; GI50 ([5]; SK-OV-3 (Ov), read-out: log GI50 (converted)): 5.75 µM; GI50 [6, 22]: 4.68 µM; GI50 ([6]; SF-295 (CNS), read-out: log GI50 (converted)): 8.71 µM; GI50 [6, 23]: 3.47 µM; GI50 [6, 24]: 3.63 µM; GI50 ([7]; HBC4, HBC-4 (Br)): 4.57 µM; GI50 ([7]; HBC5, HBC-5 (Br)): 2.24 µM; GI50 ([7]; MCF7, MCF-7 (Br)): 56.2 µM; GI50 ([7]; BSY-1 (Br)): 7.08 µM; GI50 [8]: 67.6 µM; GI50 (melanoma (Me) cell line): 30.9 µM
3 | CCNCCCCNCCCCCCCCNCCCCNCC [BET484, 1,18-bis(ethylamino)-5,14-diazaoctadecane] | 1.45 | 1.62 | the most interesting |  |  |  |  |  |  |  |  |  |  |  |  |  |  |  |  |  | GI50 ([1]; 48 h, read-out: log GI50 (concentration at which cell proliferation is inhibited to 50% of the control) (converted)): < 100 µM; GI50 ([1]; read-out: MG-MID (log GI50) (converted)): 67.6 µM; GI50 ([2]; A549, read-out: log GI50 (converted)): 16.2 µM; GI50 ([2]; DMS-273, read-out: log GI50 (converted)): 3.02 µM; GI50 ([5]; OVCAR-3, read-out: log GI50 (converted)): 20 µM; GI50 ([5]; OVCAR-4, read-out: log GI50 (converted)): 5.89 µM; GI50 ([5]; OVCAR-5, read-out: log GI50 (converted)): 72.4 µM; GI50 ([6]; read-out: log GI50, SF-539 (CNS) (converted)): 7.94 µM; GI50 ([6]; read-out: log GI50, SNB-75 (CNS) (converted)): 12.9 µM
